Converted amounts (≈) assume the structure as drawn. Like-named read-outs stand apart in the source and are kept apart here.
Experiments:
[1] = target: T1, human serum BChE (Homo sapiens, UniProt P06276); type: biochemical; conditions: read-out: hBChE IC50
T1 construct: human serum BChE (Sigma-Aldrich, Milan, Italy) was assessed by Ellman’s method; purchased Sigma-Aldrich, Milan, Italy; host or cells: human serum
Protocol: (§1) Human and mouse acetylcholinesterase and human butyrylcholinesterase inhibition
(§2) assay. The inhibitory activity of the target compounds toward recombinant human AChE
(§3) (Sigma-Aldrich, Milan, Italy), recombinant mouse AChE (Bio-Techne, Milan, Italy) and
(§4) human serum BChE (Sigma-Aldrich, Milan, Italy) was assessed by Ellman’s method,8 using
(§5) Stock solutions of the AChEs were prepared by
(§6) dissolving enzyme lyophilized powder (hAChE) or diluting the enzyme commercial solution
(§7) (mAChE) in 0.1 M potassium phosphate (pH 8.0) containing 0.1% Triton X-100, whereas the
(§8) stock solution of hBChE was prepared in 0.1% aq. gelatin and the stock solutions of the
(§9) compounds to be tested were made in MeOH (2-4 mM). The assay solution consisted of 0.02
(§10) unit mL‒1 of the enzyme, 340 M 5,5’-dithiobis(2-nitrobenzoic acid), and 550 M of the
(§11) substrate acetylthiocholine iodide (for AChE assay) or butyrylthiocholine iodide (for BChE
(§12) assay) in 0.1 M potassium phosphate (pH 8.0). Blank solutions containing all components
(§13) except the enzymes were prepared to account for the non-enzymatic hydrolysis of the
(§14) Prior the addition of the substrate, the assay solutions were incubated at 37 °C for 20 min.
(§15) After the addition of the substrate, cuvettes were rapidly transferred into a Jasco V-530
(§16) double beam spectrophotometer equipped with thermostated cuvette holders (37 °C), in order
(§17) for 240 s. For each tested compound, five increasing concentrations were assayed in order to
(§18) achieve inhibition percentages of 20‒80%. Each concentration was assayed in triplicate. IC50
(§19) values were calculated from the inhibition plot (% inhibition vs log[inhibitor]) and are
(§20) expressed as mean ± SEM. Each IC50 value is the average of at least two experiments, each

[2] = target: T2, recombinant human AChE (Homo sapiens, UniProt P22303); type: biochemical; conditions: for IC50: recombinant human AChE, mean ± SEM, read-out: hAChE IC50
T2 construct: purchased Sigma-Aldrich, Milan, Italy
Protocol: as §1, §2, §3, §4, §5, §6, §7, §8, §9, §10, §11, §12, §13, §14, §15, §16, §17, §18, §19, §20

[3] = target: T3, recombinant mouse sEH (Mus musculus, UniProt P34914); conditions: read-out: msEH IC50, average of three replicates
T3 sequence (P34914 1-554): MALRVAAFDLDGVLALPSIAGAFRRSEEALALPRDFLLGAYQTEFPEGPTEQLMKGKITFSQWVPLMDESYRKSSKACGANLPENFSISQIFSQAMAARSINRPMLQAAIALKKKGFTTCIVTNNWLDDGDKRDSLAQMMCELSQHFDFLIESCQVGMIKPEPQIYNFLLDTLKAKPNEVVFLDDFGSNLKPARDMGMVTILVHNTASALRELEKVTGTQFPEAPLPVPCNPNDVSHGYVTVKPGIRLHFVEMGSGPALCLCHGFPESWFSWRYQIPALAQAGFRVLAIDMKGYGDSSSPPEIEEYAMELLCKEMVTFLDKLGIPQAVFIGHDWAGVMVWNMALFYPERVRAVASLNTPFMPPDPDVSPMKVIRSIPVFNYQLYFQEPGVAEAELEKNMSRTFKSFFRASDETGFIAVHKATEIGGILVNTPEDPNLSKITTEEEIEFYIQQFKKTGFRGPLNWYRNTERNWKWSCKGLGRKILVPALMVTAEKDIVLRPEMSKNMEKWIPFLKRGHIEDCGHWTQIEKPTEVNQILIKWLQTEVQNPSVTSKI
Protocol: (§21) Human and mouse soluble epoxide hydrolase inhibition assay. The inhibitory activity of
(§22) the target compounds toward human and mouse sEH was determined by a fluorescence-based
(§23) assay, using purified recombinant human or mouse sEH proteins and CMNPC as a fluorescent
(§24) substrate.6 The enzymes were incubated at 30 °C with the inhibitors ([I]final = 0.4-100,000
(§25) nM) for 5 min in 100 mM sodium phosphate buffer (200 µL, pH 7.4) containing 0.1 mg mL‒1
(§26) of BSA and 1% of DMSO. The substrate (CMNPC) was then added ([S]final = 5 µM). Activity
(§27) was assessed by measuring the appearance of the fluorescent 6-methoxynaphthaldehyde
(§28) (Molecular Devices). Results were obtained by regression analysis from a linear region of the
(§29) curve and are given as IC50 values, i.e., the concentration of the compound that reduces the
(§30) sEH activity by 50%. All measurements were performed in triplicate and the mean is

[4] = Microsomal stability, rat liver microsomes; type: in vitro ADME; conditions: rat, liver microsomes (pooled), pH 7.4; for remaining at 1 h, 0.05 µM: after 1 h of incubation at 37 °C, read-out: % remaining compound, rat microsomes
Protocol: (§31) Microsomal stability screen. The microsomal stability of the target compounds was
(§32) determined at the Innopharma Drug Screening and Pharmacogenomics Platform (Santiago de
(§33) Compostela, Spain). The human, rat and mice pooled microsomes, with a protein content of 20 mg mL‒1, were purchased from Tebu-Xenotech. The compounds were incubated in a 96-well microplate at 37 °C with the microsomes in 50 mM phosphate buffer (pH = 7.4) containing as cofactors 30 mM MgCl2, 10 mM NADP, 100 mM glucose-6-phosphate and 40
(§34) Samples (75 µL) were taken from each well at 0, 10, 20, 40 and 60 min and transferred to a microplate. 4 °C Acetonitrile (75 µL) and internal standard (rolipram) were then added for inactivating the microsomes, and water with 0.5% formic acid (30 µL) was subsequently added for improving the chromatographic conditions, keeping the mixtures at 4 °C. The plate was centrifuged at 46,000 g for 30 min at 15 °C and supernatants were taken and analyzed in a UPLC-MS/MS system (UPLC QSM Waters Acquity) using reverse phase Acquity UPLC® HSST3 1.7 μm (2.1 mm × 50 mm, Waters) as the stationary phase, 0.1% formic acid in water (A) / 0.1% formic acid in acetonitrile (B) as the mobile phase, a flow of 0.8 mL min‒1, and the
(§35) The metabolic stability of the compounds was calculated from the logarithm of the remaining compound at each of the time points studied.

[5] = test system: SH-SY5Y cells; experiment: Cytotoxicity in SH-SY5Y cells, propidium iodide stain; type: cell-based, human; conditions: for toxicity to SH-SY5Y cells LD50: propidium iodide staining after 24 h of incubation, mean ± SD; for LD50 (SH-SY5Y): supplementary CSV
Protocol: Cytotoxicity in SH-SY5Y cells. The cytotoxicity of the target compounds was evaluated in
Minimum Essential Medium / Ham’s-F12 (1:1, v/v) medium (Biowest), supplemented with
non-essential amino acids, 10% fetal bovine serum, 1 mM glutamine and 50 µg mL‒1
gentamycin (all reagents from Gibco, Thermo Fisher Scientific). For the experiments, cells
were seeded at 3 × 10^5 cells mL‒1 (100 µL per well) in 96-well plates (Nunc). After 24 h, the
test compounds were added concentrated from stock solutions in DMSO and culture medium
to triplicate wells to obtain the final different concentrations up to 100 µM in 0.1% DMSO.
Compounds were incubated for further 24 h. At termination, cytotoxicity was analyzed by the
propidium iodide (PI) fluorescence stain assay. All compounds were tested in three
independent experiments using different cell passages. The PI assay measures cell death. PI
enters into the cells with damaged membranes and greatly increases the fluorescence upon
binding to DNA. PI reagent (Molecular Probes) at the final concentration of 7.5 µg mL‒1 was
added to the cells and incubated for 1 h. The resulting fluorescence was measured by a Flx-
death induced by the compounds was calculated from to the fluorescence of treated cells (Ft)
relative to that of control cells (Fmin) and cells incubated with Triton X100 (Fmax) as the 0%
and 100% cell death, respectively [% = ((Ft-Fmin)/(Fmax-Fmin)) × 100]. All compounds
were tested in three independent experiments using different cell passages. LC50 values were
calculated for each experiment and the results are expressed as mean ± SD.

[6] = target: T4, recombinant mouse AChE (Mus musculus, UniProt P21836); experiment: Mouse acetylcholinesterase inhibition, Ellman's method; type: biochemical; conditions: recombinant mouse AChE; mean ± SEM; read-out: mAChE IC50
T4 construct: purchased Bio-Techne, Milan, Italy
T4 sequence (P21836 32-614): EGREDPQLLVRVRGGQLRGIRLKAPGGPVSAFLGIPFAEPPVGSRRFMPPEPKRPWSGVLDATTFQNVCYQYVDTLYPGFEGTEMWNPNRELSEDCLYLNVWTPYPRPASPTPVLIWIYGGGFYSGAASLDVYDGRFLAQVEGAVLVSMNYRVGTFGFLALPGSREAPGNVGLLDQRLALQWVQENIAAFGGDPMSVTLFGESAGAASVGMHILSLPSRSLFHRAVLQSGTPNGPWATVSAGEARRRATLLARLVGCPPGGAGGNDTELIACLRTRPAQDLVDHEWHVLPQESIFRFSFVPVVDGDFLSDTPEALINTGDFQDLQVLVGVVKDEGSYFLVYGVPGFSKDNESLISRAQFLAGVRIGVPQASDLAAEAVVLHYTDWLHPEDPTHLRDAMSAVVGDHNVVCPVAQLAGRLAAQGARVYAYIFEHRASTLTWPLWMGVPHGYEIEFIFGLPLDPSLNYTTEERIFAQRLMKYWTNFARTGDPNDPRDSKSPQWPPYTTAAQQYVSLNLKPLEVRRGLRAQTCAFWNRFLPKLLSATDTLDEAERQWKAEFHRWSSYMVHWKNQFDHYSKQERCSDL
Protocol: as §1, §2, §3, §4, §5, §6, §7, §8, §9, §10, §11, §12, §13, §14, §15, §16, §17, §18, §19, §20

[7] = Microsomal stability, human liver microsomes; type: in vitro ADME; conditions: human, liver microsomes (pooled), pH 7.4; for remaining at 1 h: after 1 h of incubation at 37 °C, read-out: % remaining compound, human microsomes
Protocol: as §31, §32, §33, §34, §35

[8] = Kinetic aqueous solubility screen (light scattering); conditions: 1% DMSO / 99% PBS
Protocol: Aqueous solubility screen. The kinetic aqueous solubility of the target compounds was
as §32
Compostela, Spain). Ten mM stock solutions of the tested compounds were serially diluted,
NEPHELOstar Plus reader (BMG LABTECH). The results were adjusted to a segmented
linear regression to obtain the maximum concentration in which the compounds were soluble.

[9] = PAMPA-BBB assay for brain permeability; conditions: for BBB permeation class: PAMPA-BBB prediction; for Papp: pig, PAMPA
Protocol: PAMPA-BBB assay for brain permeability. The brain permeability (Pe) of the target
compounds was assessed by an in vitro parallel artificial membrane permeability assay for
blood‒brain barrier penetration (PAMPA-BBB assay),12 which uses a lipid extract of porcine
brain membrane as a BBB model. The assay was validated by comparing experimental and
reported Pe values of a set of fourteen commercial drugs (Table S2 of the Supporting
On the basis of this equation and the limits established by Di et al. for BBB
independent experiments, each performed in triplicate, were carried out for each compound.

[10] = Microsomal stability, mouse liver microsomes; type: in vitro ADME; conditions: mouse, liver microsomes (pooled), pH 7.4; for microsomal CLint at 1 h, 0.05 µM / half-life at 1 h, 0.05 µM: 37 °C; for half-life at 1 h, 0.05 µM: read-out: t1/2, mouse microsomes; for remaining at 1 h, 0.05 µM: after 1 h of incubation at 37 °C, read-out: % remaining compound, mouse microsomes
Protocol: as §31, §32, §33, §34, §35

[11] = target: T5, recombinant human sEH (Homo sapiens, UniProt P34913); experiment: Human soluble epoxide hydrolase inhibition, fluorescence-based assay (CMNPC substrate); type: biochemical; conditions: for higher hsEH potency relative to TPPU: ratio of IC50s vs TPPU; for IC50: recombinant human sEH, average of three replicates, read-out: hsEH IC50
T5 sequence (P34913 1-555): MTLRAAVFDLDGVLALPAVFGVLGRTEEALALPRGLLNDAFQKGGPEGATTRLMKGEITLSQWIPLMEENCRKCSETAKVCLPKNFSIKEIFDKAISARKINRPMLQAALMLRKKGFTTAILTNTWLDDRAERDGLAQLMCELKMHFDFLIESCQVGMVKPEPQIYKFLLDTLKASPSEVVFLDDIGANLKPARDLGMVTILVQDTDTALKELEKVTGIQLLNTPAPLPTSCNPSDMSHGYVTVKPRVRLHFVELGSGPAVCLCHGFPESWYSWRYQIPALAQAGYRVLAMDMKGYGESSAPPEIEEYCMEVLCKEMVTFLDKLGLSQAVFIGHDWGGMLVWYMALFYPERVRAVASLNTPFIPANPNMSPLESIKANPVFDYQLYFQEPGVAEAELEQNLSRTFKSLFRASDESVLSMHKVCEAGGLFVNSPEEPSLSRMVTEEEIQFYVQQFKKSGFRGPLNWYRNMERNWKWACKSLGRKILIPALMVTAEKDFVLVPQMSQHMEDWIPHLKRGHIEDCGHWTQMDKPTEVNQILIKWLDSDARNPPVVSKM
Protocol: as §21, §22, §23, §24, §25, §26, §27, §28, §29, §30

[12] = target: PAS of Electrophorus electricus AChE (EeAChE) (Electrophorus electricus, UniProt O42275); conditions: read-out: KD of propidium for PAS; value assumed for the calculation; ref 11 (Supporting Information); cited from earlier work
[13] = human serum BChE, mean ± SEM, n.a. = not active, % inhibition <10% at 100 μM
[14] = 37 °C, read-out: t1/2, rat microsomes
[15] = 37 °C, read-out: t1/2, human microsomes

T1 sequence (P06276 29-602): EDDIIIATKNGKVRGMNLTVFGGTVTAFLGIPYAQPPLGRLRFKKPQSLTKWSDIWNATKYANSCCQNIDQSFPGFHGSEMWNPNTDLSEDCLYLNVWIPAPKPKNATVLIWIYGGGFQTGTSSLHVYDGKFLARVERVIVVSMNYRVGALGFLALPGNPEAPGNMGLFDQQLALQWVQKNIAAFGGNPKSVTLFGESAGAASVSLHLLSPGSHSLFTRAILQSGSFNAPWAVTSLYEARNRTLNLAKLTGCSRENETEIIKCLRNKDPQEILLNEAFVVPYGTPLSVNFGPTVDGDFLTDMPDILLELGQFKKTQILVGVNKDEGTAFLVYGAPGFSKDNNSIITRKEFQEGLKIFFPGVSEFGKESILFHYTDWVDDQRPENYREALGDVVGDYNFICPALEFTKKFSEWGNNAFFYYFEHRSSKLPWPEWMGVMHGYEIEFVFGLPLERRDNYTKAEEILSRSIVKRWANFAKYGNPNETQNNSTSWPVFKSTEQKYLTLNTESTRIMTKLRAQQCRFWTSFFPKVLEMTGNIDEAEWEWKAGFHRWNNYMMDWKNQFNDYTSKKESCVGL
T2 sequence (P22303 32-614): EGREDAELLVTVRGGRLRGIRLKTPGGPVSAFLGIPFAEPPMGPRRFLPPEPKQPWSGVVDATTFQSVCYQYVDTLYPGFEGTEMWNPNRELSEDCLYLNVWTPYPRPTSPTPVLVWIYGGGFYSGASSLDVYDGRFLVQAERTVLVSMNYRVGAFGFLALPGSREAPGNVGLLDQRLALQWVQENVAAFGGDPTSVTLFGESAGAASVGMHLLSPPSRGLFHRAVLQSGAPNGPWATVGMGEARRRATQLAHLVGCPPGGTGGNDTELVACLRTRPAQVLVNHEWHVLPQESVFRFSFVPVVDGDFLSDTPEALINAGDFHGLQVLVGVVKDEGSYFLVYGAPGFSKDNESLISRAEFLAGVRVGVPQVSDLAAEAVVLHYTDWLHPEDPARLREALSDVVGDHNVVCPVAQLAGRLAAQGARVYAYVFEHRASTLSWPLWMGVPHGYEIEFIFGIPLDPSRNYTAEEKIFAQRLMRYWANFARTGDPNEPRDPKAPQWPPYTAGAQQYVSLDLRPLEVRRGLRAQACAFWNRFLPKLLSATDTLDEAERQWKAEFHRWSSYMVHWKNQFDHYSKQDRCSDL
Chain of PAS of Electrophorus electricus AChE (EeAChE) (O42275 24-633): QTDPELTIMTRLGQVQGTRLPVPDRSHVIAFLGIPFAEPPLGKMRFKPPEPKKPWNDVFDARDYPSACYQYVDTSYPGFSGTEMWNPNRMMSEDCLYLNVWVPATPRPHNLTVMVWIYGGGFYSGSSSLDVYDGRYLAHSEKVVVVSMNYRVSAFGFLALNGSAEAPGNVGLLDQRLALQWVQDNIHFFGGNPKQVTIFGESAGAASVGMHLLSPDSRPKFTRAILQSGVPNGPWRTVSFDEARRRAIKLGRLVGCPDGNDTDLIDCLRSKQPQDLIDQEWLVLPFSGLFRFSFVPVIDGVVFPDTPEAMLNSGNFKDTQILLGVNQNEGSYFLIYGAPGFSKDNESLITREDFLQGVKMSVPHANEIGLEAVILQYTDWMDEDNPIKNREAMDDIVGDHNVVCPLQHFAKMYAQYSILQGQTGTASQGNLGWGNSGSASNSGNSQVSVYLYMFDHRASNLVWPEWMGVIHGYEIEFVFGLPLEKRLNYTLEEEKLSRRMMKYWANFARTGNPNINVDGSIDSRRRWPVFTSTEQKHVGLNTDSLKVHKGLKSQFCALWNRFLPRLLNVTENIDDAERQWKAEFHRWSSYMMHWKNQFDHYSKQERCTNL

## O=C(Nc1ccc(OC(F)(F)F)cc1)NC1CCN(C(=O)CCNc2c3c(nc4cc(Cl)ccc24)CCCC3)CC1 [12a, 1-{1-{3-[(6-Chloro-1,2,3,4-tetrahydroacridin-9-yl)amino]propanoyl}piperidin-4-yl}-3-[4-(trifluoromethoxy)phenyl]urea]
[1]; [13]
  IC50: 947 ± 6 nM
[2]
  IC50: 14.5 ± 0.3 nM
[3]
  IC50: 12.1 nM
[4]; 37 °C
  microsomal CLint at 1 h, 0.05 µM: 56 µL/min/mg
[4]; [14]
  half-life at 0.05 µM: 12 min
[4]
  remaining at 1 h, 0.05 µM: 4%
[5]
  toxicity to SH-SY5Y cells LD50: 92.8 ± 52.3 µM
  LD50 (SH-SY5Y): 92.8 ± 52.3 ?M
[6]
  IC50: 35.4 ± 2 nM
[7]; 37 °C
  microsomal CLint at 1 h: 57 µL/min/mg
[7]; [15]
  half-life: 12 min
[7]
  remaining at 1 h: 4%
[8]
  solubility at 2 h: 42.6 µM (≈ 25.1 µg/mL)
[9]
  BBB permeation class: CNS+ (High permeation, CNS+: Pe > 5.2)
  Papp: 9.2 ± 0.2 ×10⁻⁶ cm/s
[10]
  microsomal CLint at 1 h, 0.05 µM: 109 µL/min/mg
  half-life at 1 h, 0.05 µM: 6 min
  remaining at 1 h, 0.05 µM: 1%
[11]
  higher hsEH potency relative to TPPU: 9 fold
  IC50: 0.4 nM

## O=C(Nc1ccc(OC(F)(F)F)cc1)NC1CCN(C(=O)CCCNc2c3c(nc4cc(Cl)ccc24)CCCC3)CC1 [12b, 1-{1-{4-[(6-Chloro-1,2,3,4-tetrahydroacridin-9-yl)amino]butanoyl}piperidin-4-yl}-3-[4-(trifluoromethoxy)phenyl]urea]
[1]; [13]
  IC50: 416 ± 35 nM
[2]
  hAChE potency relative to 6-chlorotacrine: 5 fold
  IC50: 2.71 ± 0.06 nM
[3]
  IC50: 15 nM
[4]; 37 °C
  microsomal CLint at 1 h, 0.05 µM: 69 µL/min/mg
[4]; [14]
  half-life at 1 h, 0.05 µM: 10 min
[4]
  remaining at 1 h, 0.05 µM: 2%
[5]
  toxicity to SH-SY5Y cells LD50: >100 µM
  LD50 (SH-SY5Y): > 100 ?M
[6]
  IC50: 4.01 ± 0.24 nM
[7]; 37 °C
  microsomal CLint at 1 h: 19 µL/min/mg
[7]; [15]
  half-life at 1 h: 36 min
[7]
  remaining at 1 h: 34%
[8]
  solubility at 2 h: 13.7 µM (≈ 8.28 µg/mL)
[9]
  BBB permeation class: CNS+ (High permeation, CNS+: Pe > 5.2)
  Papp: 9.1 ± 0.1 ×10⁻⁶ cm/s
[10]
  microsomal CLint at 1 h, 0.05 µM: 78 µL/min/mg
  half-life at 1 h, 0.05 µM: 9 min
  remaining at 1 h, 0.05 µM: 1%
[11]
  IC50: 1 nM

## CC1=C[C@H]2Cc3nc4cc(Cl)ccc4c(N)c3[C@@H](C1)C2 [(+)-3, (+)-huprine Y, reference compound]
[1]
  IC50: 170 ± 17 nM
[3]
  IC50: > 50000 nM
[6]
  IC50: 474 ± 22 nM
[11]
  IC50: > 50000 nM

## CC1=C[C@H]2Cc3nc4cc(Cl)ccc4c(NCCCCC(=O)N4CCC(NC(=O)Nc5ccc(OC(F)(F)F)cc5)CC4)c3[C@@H](C1)C2 [(+)-15, (+)-(7R,11R)-1-{1-{5-[(3-Chloro-6,7,10,11-tetrahydro-9-methyl-7,11-methanocycloocta[b]quinolin-12-yl)amino]pentanoyl}piperidin-4-yl}-3-[4-(trifluoromethoxy)phenyl]urea]
[1]; [13]
  IC50: 179 ± 26 nM
[2]
  IC50: 1660 ± 450 nM
[3]
  IC50: 14.5 nM
[6]
  IC50: 102 ± 18 nM
[11]
  IC50: 3.1 nM

## CC1=C[C@@H]2Cc3nc4cc(Cl)ccc4c(N)c3[C@H](C1)C2 [(−)-3, (−)-huprine Y, reference compound]
[1]
  IC50: 222 ± 17 nM
[3]
  IC50: > 50000 nM
[6]
  IC50: 0.62 ± 0.03 nM
[11]
  IC50: 41000 nM

## CC1=C[C@@H]2Cc3nc4cc(Cl)ccc4c(NCCCCC(=O)N4CCC(NC(=O)Nc5ccc(OC(F)(F)F)cc5)CC4)c3[C@H](C1)C2 [(−)-15, (−)-(7S,11S)-1-{1-{5-[(3-Chloro-6,7,10,11-tetrahydro-9-methyl-7,11-methanocycloocta[b]quinolin-12-yl)amino]pentanoyl}piperidin-4-yl}-3-[4-(trifluoromethoxy)phenyl]urea]
[1]; [13]
  IC50: 615 ± 34 nM
[2]; enantioselectivity
  hAChE potency relative to its enantiomer: 850 fold
[2]
  IC50: 1.94 ± 0.67 nM
[3]
  IC50: 34.3 nM
[4]; 37 °C
  microsomal CLint at 1 h, 0.05 µM: 54 µL/min/mg
[4]; [14]
  half-life at 1 h, 0.05 µM: 13 min
[4]
  remaining at 1 h, 0.05 µM: 4%
[5]
  toxicity to SH-SY5Y cells LD50: >100 µM
  LD50 (SH-SY5Y): > 100 ?M
[6]
  IC50: 2.61 ± 0.16 nM
[7]; 37 °C
  microsomal CLint at 1 h: 144 µL/min/mg
[7]; [15]
  half-life at 1 h: 5 min
[7]
  remaining at 1 h: 1%
[8]
  solubility at 2 h: 5.6 µM (≈ 3.75 µg/mL)
[9]
  BBB permeation class: CNS+ (High permeation, CNS+: Pe > 5.2)
  Papp: 9.9 ± 0.3 ×10⁻⁶ cm/s
[10]
  microsomal CLint at 1 h, 0.05 µM: 172 µL/min/mg
  half-life at 1 h, 0.05 µM: 4 min
  remaining at 1 h, 0.05 µM: 0.4%
[11]; enantioselectivity
  hsEH potency relative to its enantiomer: 8 fold
[11]
  higher hsEH potency relative to TPPU: 9 fold
  IC50: 0.4 nM

## CN1C(C(=O)Nc2ccccn2)=C(O)c2ccccc2S1(=O)=O [Piroxicam, reference compound]
[9]
  Papp: 2.3 ± 0.1 ×10⁻⁶ cm/s

## Nc1c2c(nc3cc(Cl)ccc13)CCCC2 [compound 2, 6-chlorotacrine, reference compound]
[3]
  IC50: > 50000 nM
[6]
  IC50: 19.8 ± 0.7 nM
[11]
  IC50: 49100 nM

## CC[N+](C)(CC)CCC[n+]1c(-c2ccccc2)c2cc(N)ccc2c2ccc(N)cc21 [propidium, propidium iodide]
[12]
  Kd: 700 nM

Source: PMC8958510 (Journal of Medicinal Chemistry, 2022)
